Measured values published in patent US9096602B2, “Substituted pyrrolo[2,3-B]pyrazines as ATR kinase inhibitors” (Vertex Pharmaceuticals Incorporated, priority 2011, dated 2015).
Where two headings read alike, the source gives them in different places. Each block holds one compound with its values, some of them ahead of it.

Molecular target: T1, ATR kinase (full-length ATR) (Homo sapiens, UniProt Q13535)
T1 construct: Assays were carried out at 25° C. in the presence of 5 nM full-length ATR
Assay: ATR Inhibition Assay (radioactive-phosphate incorporation)
Format: biochemical
Settings: Ki(app), 5 nM full-length ATR, 10 μM ATP, 800 μM target peptide, 25° C., read-out: ATR Inhibition Ki
Experimental: Compounds were screened for their ability to inhibit ATR kinase using a radioactive-phosphate incorporation assay. Assays were carried out in a mixture of 50 mM Tris/HCl (pH 7.5), 10 mM MgCl2 and 1 mM DTT. Final substrate concentrations were 10 μM [y-33P]ATP (3mCi 33P ATP/mmol ATP, Perkin Elmer) and 800 μM target peptide ([…]).
Assays were carried out at 25° C. in the presence of 5 nM full-length ATR. An assay stock buffer solution was prepared containing all of the reagents listed above, with the exception of ATP and the test compound of interest. […] The plate was pre-incubated for 10 minutes at 25° C. and the reaction initiated by addition of 15 μL [y-33P]ATP (final concentration 10 μM).
The reaction was stopped after […] by the addition of 30 μL 0.1M phosphoric acid containing 2 mM ATP. A multiscreen phosphocellulose filter 96-well plate (Millipore, Cat no. MAPHN0B50) was pretreated with 100 μL 0.2M phosphoric acid prior to the addition of 45 μL of the stopped assay mixture. The plate was washed with 5×200 μL 0.2M phosphoric acid.
After removing mean background values for all of the data points, Ki(app) data were calculated from non-linear regression analysis of the initial rate data using the Prism software package (GraphPad Prism version 3.0cx for Macintosh, GraphPad Software, San Diego Calif., USA).

[1] = given as numeric lower bound without unit

T1 sequence (Q13535 whole entry): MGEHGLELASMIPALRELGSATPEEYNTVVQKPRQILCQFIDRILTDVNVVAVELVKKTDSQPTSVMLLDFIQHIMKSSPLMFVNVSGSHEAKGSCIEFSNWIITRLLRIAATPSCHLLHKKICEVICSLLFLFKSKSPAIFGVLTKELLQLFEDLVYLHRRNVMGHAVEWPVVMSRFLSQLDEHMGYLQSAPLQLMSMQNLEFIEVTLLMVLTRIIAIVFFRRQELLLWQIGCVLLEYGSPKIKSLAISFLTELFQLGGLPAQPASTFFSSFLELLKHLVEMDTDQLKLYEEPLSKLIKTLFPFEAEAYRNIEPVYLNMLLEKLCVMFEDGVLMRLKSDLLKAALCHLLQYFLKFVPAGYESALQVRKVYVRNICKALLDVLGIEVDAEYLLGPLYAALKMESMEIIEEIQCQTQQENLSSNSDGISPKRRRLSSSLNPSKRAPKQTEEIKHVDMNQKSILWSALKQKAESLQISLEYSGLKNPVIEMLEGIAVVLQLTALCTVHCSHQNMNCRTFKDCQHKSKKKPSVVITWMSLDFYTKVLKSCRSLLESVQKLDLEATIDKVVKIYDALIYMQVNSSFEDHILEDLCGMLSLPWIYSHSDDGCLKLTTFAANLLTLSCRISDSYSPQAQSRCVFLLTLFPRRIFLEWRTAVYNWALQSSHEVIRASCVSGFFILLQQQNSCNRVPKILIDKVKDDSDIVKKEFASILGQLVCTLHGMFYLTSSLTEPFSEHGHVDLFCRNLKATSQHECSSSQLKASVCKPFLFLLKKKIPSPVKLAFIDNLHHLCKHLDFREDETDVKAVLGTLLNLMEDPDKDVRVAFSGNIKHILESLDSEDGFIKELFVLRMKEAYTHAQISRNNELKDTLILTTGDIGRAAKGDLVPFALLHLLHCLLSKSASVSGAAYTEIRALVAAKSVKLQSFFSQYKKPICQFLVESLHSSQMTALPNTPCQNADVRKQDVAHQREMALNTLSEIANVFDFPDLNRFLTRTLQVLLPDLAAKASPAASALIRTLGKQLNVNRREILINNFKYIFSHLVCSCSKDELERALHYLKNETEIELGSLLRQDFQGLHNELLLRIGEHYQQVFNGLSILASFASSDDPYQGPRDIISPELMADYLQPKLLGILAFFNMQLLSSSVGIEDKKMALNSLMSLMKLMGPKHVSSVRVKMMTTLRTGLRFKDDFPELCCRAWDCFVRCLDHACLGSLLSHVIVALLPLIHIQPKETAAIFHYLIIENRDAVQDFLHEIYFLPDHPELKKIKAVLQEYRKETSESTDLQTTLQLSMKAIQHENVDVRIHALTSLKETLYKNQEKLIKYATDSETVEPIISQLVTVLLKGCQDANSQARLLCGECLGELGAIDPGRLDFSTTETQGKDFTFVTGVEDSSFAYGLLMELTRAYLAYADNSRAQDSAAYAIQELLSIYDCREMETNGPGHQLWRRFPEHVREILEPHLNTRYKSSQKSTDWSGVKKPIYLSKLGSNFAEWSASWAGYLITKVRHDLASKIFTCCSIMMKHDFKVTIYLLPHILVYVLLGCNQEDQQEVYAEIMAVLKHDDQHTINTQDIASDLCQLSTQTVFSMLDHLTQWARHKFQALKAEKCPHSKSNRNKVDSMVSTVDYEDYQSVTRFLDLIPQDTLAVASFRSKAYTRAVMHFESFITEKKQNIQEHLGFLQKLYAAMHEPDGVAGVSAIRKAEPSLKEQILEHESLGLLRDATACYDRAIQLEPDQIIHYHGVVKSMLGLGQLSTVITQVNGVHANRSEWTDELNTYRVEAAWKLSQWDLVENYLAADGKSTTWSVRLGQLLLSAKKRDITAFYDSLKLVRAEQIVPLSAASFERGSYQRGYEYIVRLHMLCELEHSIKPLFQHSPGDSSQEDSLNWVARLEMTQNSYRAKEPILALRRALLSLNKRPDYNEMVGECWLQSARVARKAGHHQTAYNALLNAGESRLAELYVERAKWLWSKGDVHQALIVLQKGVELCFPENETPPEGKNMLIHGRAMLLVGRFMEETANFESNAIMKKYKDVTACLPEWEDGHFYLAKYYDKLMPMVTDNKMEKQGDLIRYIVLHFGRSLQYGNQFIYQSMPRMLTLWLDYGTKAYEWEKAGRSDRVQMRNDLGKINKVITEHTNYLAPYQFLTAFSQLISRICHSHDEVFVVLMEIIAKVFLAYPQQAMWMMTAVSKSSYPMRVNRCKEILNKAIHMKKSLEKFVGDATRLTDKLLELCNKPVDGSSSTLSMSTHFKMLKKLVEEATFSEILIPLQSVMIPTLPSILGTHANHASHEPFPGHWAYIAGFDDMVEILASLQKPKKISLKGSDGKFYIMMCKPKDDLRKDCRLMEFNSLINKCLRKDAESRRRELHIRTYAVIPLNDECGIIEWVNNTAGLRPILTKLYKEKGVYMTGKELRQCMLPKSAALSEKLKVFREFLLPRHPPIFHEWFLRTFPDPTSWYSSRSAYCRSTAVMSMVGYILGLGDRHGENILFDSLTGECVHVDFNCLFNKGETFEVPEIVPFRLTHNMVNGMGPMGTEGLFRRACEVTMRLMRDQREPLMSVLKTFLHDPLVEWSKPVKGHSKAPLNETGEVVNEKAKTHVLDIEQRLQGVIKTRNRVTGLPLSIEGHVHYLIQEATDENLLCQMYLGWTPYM

Ki (class symbols): < 100 nM
SMILES: CC(C)S(=O)(=O)c1ccc(-c2cnc3[nH]cc(C(=O)Nc4ccc(CCO)cc4)c3n2)cc1 [Compound I-24, N-[4-(2-hydroxyethyl)phenyl]-2-(4-isopropylsulfonylphenyl)-5H-pyrrolo[2,3-b]pyrazine-7-carboxamide]

Ki (class symbols): 500 to 5000 nM
SMILES: CC(C)S(=O)(=O)c1ccc(-c2cnc3[nH]cc(C(=O)N[C@@H](CCO)c4ccccc4)c3n2)cc1 [Compound I-51, N-[(1S)-3-hydroxy-1-phenyl-propyl]-2-(4-isopropylsulfonylphenyl)-5H-pyrrolo[2,3-b]pyrazine-7-carboxamide]

Ki (class symbols): 100 to 500 nM
SMILES: CC(C)S(=O)(=O)c1ccc(-c2cnc3[nH]cc(C(=O)NC(CCO)c4ccc(N)cc4)c3n2)cc1 (stereo not shown) [Compound I-80, N-[1-(4-aminophenyl)-3-hydroxy-propyl]-2-(4-isopropylsulfonylphenyl)-5H-pyrrolo[2,3-b]pyrazine-7-carboxamide]

Ki (class symbols): 100 to 500 nM
SMILES: CC(C)S(=O)(=O)c1ccc(-c2cnc3[nH]cc(C(=O)NC4CCOC4)c3n2)cc1 (stereo not shown) [Compound I-118, 2-(4-isopropylsulfonylphenyl)-N-tetrahydrofuran-3-yl-5H-pyrrolo[2,3-b]pyrazine-7-carboxamide]

Ki (class symbols): 100 to 500 nM
SMILES: CC(C)S(=O)(=O)c1ccc(-c2cnc3[nH]cc(C(=O)NC(CCO)c4cccc(N)c4)c3n2)cc1 (stereo not shown) [Compound I-79, N-[1-(3-aminophenyl)-3-hydroxy-propyl]-2-(4-isopropylsulfonylphenyl)-5H-pyrrolo[2,3-b]pyrazine-7-carboxamide]

Ki (class symbols): < 100 nM
SMILES: CCC[C@@H](CO)NC(=O)c1c[nH]c2ncc(-c3ccc(S(=O)(=O)C(C)C)cc3)nc12 [Compound I-112, N-[(1S)-1-(hydroxymethyl)butyl]-2-(4-isopropylsulfonylphenyl)-5H-pyrrolo[2,3-b]pyrazine-7-carboxamide]

Ki (class symbols): 500 to 5000 nM
SMILES: CC(C)S(=O)(=O)c1ccc(-c2cnc3[nH]cc(C(=O)NCCN(C)C)c3n2)cc1 [Compound I-21, N-(2-dimethylaminoethyl)-2-(4-isopropylsulfonylphenyl)-5H-pyrrolo[2,3-b]pyrazine-7-carboxamide]

Ki (class symbols): < 100 nM
SMILES: Cc1cccc(CNC(=O)c2c[nH]c3ncc(-c4ccc(S(=O)(=O)C(C)C)cc4)nc23)c1 [Compound I-16, 2-(4-isopropylsulfonylphenyl)-N-(m-tolylmethyl)-5H-pyrrolo[2,3-b]pyrazine-7-carboxamide]

Ki (class symbols): 100 to 500 nM
SMILES: CC(C)S(=O)(=O)c1ccc(-c2cnc3[nH]cc(C(=O)N[C@@H](CO)c4ccccc4)c3n2)cc1 [Compound I-56, N-[(1R)-2-hydroxy-1-phenyl-ethyl]-2-(4-isopropylsulfonylphenyl)-5H-pyrrolo[2,3-b]pyrazine-7-carboxamide]

Ki (class symbols): < 100 nM
SMILES: CC(C)S(=O)(=O)c1ccc(-c2cnc3[nH]cc(C(=O)NCC4CCC4)c3n2)cc1 [Compound I-29, N-(cyclobutylmethyl)-2-(4-isopropylsulfonylphenyl)-5H-pyrrolo[2,3-b]pyrazine-7-carboxamide]

Ki (class symbols): < 100 nM
SMILES: Cc1ccc(CNC(=O)c2c[nH]c3ncc(-c4ccc(S(=O)(=O)C(C)C)cc4)nc23)cc1 [Compound I-17, 2-(4-isopropylsulfonylphenyl)-N-(p-tolylmethyl)-5H-pyrrolo[2,3-b]pyrazine-7-carboxamide]

More lines, now with the values behind:

SMILES: CC(C)S(=O)(=O)c1ccc(-c2cnc3[nH]cc(C(=O)N4CCCC4CO)c3n2)cc1 (stereo not shown) [Compound I-40, [2-(hydroxymethyl)pyrrolidin-1-yl]-[2-(4-isopropylsulfonylphenyl)-5H-pyrrolo[2,3-b]pyrazin-7-yl]methanone]
Ki (class symbols): 500 to 5000 nM

SMILES: CC(C)S(=O)(=O)c1ccc(-c2cnc3[nH]cc(C(=O)NCc4ccccc4)c3n2)cc1 [Compound I-1, N-benzyl-2-(4-isopropylsulfonylphenyl)-5H-pyrrolo[2,3-b]pyrazine-7-carboxamide]
Ki (class symbols): < 100 nM

SMILES: CC(C)S(=O)(=O)c1ccc(-c2cnc3[nH]cc(C(=O)NCc4cccnc4)c3n2)cc1 [Compound I-59, 2-(4-isopropylsulfonylphenyl)-N-(3-pyridylmethyl)-5H-pyrrolo[2,3-b]pyrazine-7-carboxamide]
Ki (class symbols): 100 to 500 nM

SMILES: CC(C)S(=O)(=O)c1ccc(-c2cnc3[nH]cc(C(=O)Nc4ccc(N)cc4)c3n2)cc1 [Compound I-18, N-(4-aminophenyl)-2-(4-isopropylsulfonylphenyl)-5H-pyrrolo[2,3-b]pyrazine-7-carboxamide]
Ki (class symbols): < 100 nM

SMILES: CC(C)S(=O)(=O)c1ccc(-c2cnc3[nH]cc(C(=O)NC4CCOCC4)c3n2)cc1 [Compound I-104, 2-(4-isopropylsulfonylphenyl)-N-tetrahydropyran-4-yl-5H-pyrrolo[2,3-b]pyrazine-7-carboxamide]
Ki (class symbols): 500 to 5000 nM

SMILES: CC(C)S(=O)(=O)c1ccc(-c2cnc3[nH]cc(C(=O)Nc4noc5ccccc45)c3n2)cc1 [Compound I-43, N-(1,2-benzoxazol-3-yl)-2-(4-isopropylsulfonylphenyl)-5H-pyrrolo[2,3-b]pyrazine-7-carboxamide]
Ki (class symbols): < 100 nM

SMILES: COc1cccc(NC(=O)c2c[nH]c3ncc(-c4ccc(S(=O)(=O)C(C)C)cc4)nc23)c1 [Compound I-11, 2-(4-isopropylsulfonylphenyl)-N-(3-methoxyphenyl)-5H-pyrrolo[2,3-b]pyrazine-7-carboxamide]
Ki (class symbols): 500 to 5000 nM

SMILES: CC(O)c1cccc(NC(=O)c2c[nH]c3ncc(-c4ccc(S(=O)(=O)C(C)C)cc4)nc23)c1 (stereo not shown) [Compound I-34, N-[3-(1-hydroxyethyl)phenyl]-2-(4-isopropylsulfonylphenyl)-5H-pyrrolo[2,3-b]pyrazine-7-carboxamide]
Ki (class symbols): 100 to 500 nM

SMILES: CC(C)S(=O)(=O)c1ccc(-c2cnc3[nH]cc(C(=O)Nc4cccc(F)c4)c3n2)cc1 [Compound I-73, N-(3-fluorophenyl)-2-(4-isopropylsulfonylphenyl)-5H-pyrrolo[2,3-b]pyrazine-7-carboxamide]
Ki (class symbols): < 100 nM

SMILES: CC(C)S(=O)(=O)c1ccc(-c2cnc3[nH]cc(C(=O)Nc4cccnc4)c3n2)cc1 [Compound I-5, 2-(4-isopropylsulfonylphenyl)-N-(3-pyridyl)-5H-pyrrolo[2,3-b]pyrazine-7-carboxamide]
Ki (class symbols): < 100 nM

SMILES: CC(C)S(=O)(=O)c1ccc(-c2cnc3[nH]cc(C(=O)N4CCCC(O)C4)c3n2)cc1 (stereo not shown) [Compound I-23, (3-hydroxy-1-piperidyl)-[2-(4-isopropylsulfonylphenyl)-5H-pyrrolo[2,3-b]pyrazin-7-yl]methanone]
Ki [1]: > 4000 nM

SMILES: Cc1cccc(CNC(=O)c2c[nH]c3ncc(-c4ccc(S(=O)(=O)C(C)C)cc4)nc23)c1Cl [Compound I-66, N-[(2-chloro-3-methyl-phenyl)methyl]-2-(4-isopropylsulfonylphenyl)-5H-pyrrolo[2,3-b]pyrazine-7-carboxamide]
Ki (class symbols): < 100 nM

SMILES: CC(C)S(=O)(=O)c1ccc(-c2cnc3[nH]cc(C(=O)N4CCCN(C(=O)OC(C)(C)C)CC4)c3n2)cc1 [Compound I-134, tert-butyl 4-[2-(4-isopropylsulfonylphenyl)-5H-pyrrolo[2,3-b]pyrazine-7-carbonyl]-1,4-diazepane-1-carboxylate]
Ki [1]: > 40 nM

SMILES: CC(C)S(=O)(=O)c1ccc(-c2cnc3[nH]cc(C(=O)N4CCCC(N(C)C)C4)c3n2)cc1 (stereo not shown) [Compound I-98, [3-(dimethylamino)-1-piperidyl]-[2-(4-isopropylsulfonylphenyl)-5H-pyrrolo[2,3-b]pyrazin-7-yl]methanone]
Ki [1]: > 4000 nM
